# Experimental data as given in US20060121449A1, “Method for selection of compounds which inhibit clonal cell growth and use thereof” (priority 2002, published 2006).
# “Also recorded” adds a separate entry of the source. Starred links: 1 amine or outer side, 2 acyl side, 3 side chain; linkers in the order of their positions; H or OH if unused. Positions of bridges follow the written chain, without caps; N, C: chain ends. Non-standard residues stand in square brackets, D forms with d. Residues, ends and D or L forms follow the SMILES beside them. Chains are numbered I, II in the order given. Actinocin(9to1) = Cc1c2oc3c(C)ccc(C(=O)[*:1])c3nc-2c(C(=O)[*:2])c(N)c1=O; NMeV = CN[C@H](C(=O)O)C(C)C; Sar = CNCC(=O)O
# Tested on: polyoma virus transformed BHK21/c13 cells, line S100T1
# Assay: Collocation inhibition test: clonal growth in sparsely and densely seeded areas of a cell density gradient of S100T1 cells in soft agar (Exp 13, 17, 19-26);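 further: soft agar cultures in 24-well plates with a cell density gradient in the top layer, compounds applied from DMSO stocks, clonal growth scored in sparse versus dense areas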;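 on Clonal growth, H high density area of cell gradient, High: grades rise with clonal growth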;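 on Clonal growth, H high density area of cell gradient, Low: grades rise with clonal growth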;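 on Clonal growth, H high density area of cell gradient, Medium: grades rise with clonal growth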;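 on Clonal growth, L low density area of cell gradient, High: grades rise with clonal growth and minus or plus-minus means none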;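 on Clonal growth, L low density area of cell gradient, Low: grades rise with clonal growth and minus or plus-minus means none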;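 on Clonal growth, L low density area of cell gradient, Medium: grades rise with clonal growth and minus or plus-minus means none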
# Details: for Clonal growth, H high density area of cell gradient, High / Clonal growth, L low density area of cell gradient, High / Clonal growth, H high density area of cell gradient, Low / Clonal growth, L low density area of cell gradient, Low / Clonal growth, H high density area of cell gradient, Medium / Clonal growth, L low density area of cell gradient, Medium / Effect on cell cloning in soft agar: preliminary results; for Clonal growth, H high density area of cell gradient, High / Clonal growth, L low density area of cell gradient, High / Clonal growth, H high density area of cell gradient, Low / Clonal growth, L low density area of cell gradient, Low / Clonal growth, H high density area of cell gradient, Medium / Clonal growth, L low density area of cell gradient, Medium: Exp 13-18, 21-26; for Effect on cell cloning in soft agar: in words; for Effect on clonal growth, high dose: 172800 S100T1 cells/well; for Resulting clonal growth of treated cultures: Experiment 26, read after 24 hours; for Effect on clonal growth and toxicity: 117000 S100T1 cells/well
# [1] = Exp 19, 120000 S100T1 cells/well
# [2] = H: area with high cell density, High concentration
# [3] = H: area with high cell density, Low concentration
# [4] = H: area with high cell density, Medium concentration
# [5] = L: area with low cell density, High concentration
# [6] = L: area with low cell density, Low concentration
# [7] = L: area with low cell density, Medium concentration
# [8] = Experiment 25, H: area with high cell density, Low concentration, after 48 hours incubation
# [9] = Experiment 25, H: area with high cell density, Medium concentration, after 48 hours incubation
# [10] = Experiment 25, L: area with low cell density, High concentration, after 48 hours incubation
# [11] = Experiment 25, L: area with low cell density, Low concentration, after 48 hours incubation
# [12] = Experiment 25, L: area with low cell density, Medium concentration, after 48 hours incubation
# [13] = Exp 21, 117000 cells per well, Low concentration (see figure), H: area with high cell density
# [14] = Exp 21, High concentration, H: area with high cell density
# [15] = Exp 21, Low concentration, L: area with low cell density
# [16] = Exp 21, Medium concentration, H: area with high cell density
# [17] = Exp 21, Medium concentration, L: area with low cell density
# [18] = 4-OH-OPB analogues, S100T1 in soft agar, high concentration
# [19] = 4-OH-OPB analogues, S100T1 in soft agar, low concentration
# [20] = 4-OH-OPB analogues, S100T1 in soft agar, medium concentration
# Experimental: The cells should be grown in a top agar layer to avoid growth on the bottom surface. […] Both densely seeded and sparsely seeded areas were photographed.
# Cells: The polyoma virus transformed offspring of BHK21/c13, S100T1, was grown on 75 cm^2 flasks on Eagles medium with 5% foetal calf serum. […] Foetal calf serum (0.7 ml) was added to each harvest. After low speed centrifugation the supernatant was discarded and the cells were dispersed in 1 ml FBS.
# The concentration of ultra low gelling temperature agarose (Sigma) of the top agar layer with cells was also 0.8%. […] The addition of cells was performed at the same side of the wells in order to create similar cell density gradients. Finally the top layer agar was consolidated in the refrigerator.
# After that it was incubated at 37 degrees in 5% CO2 atmosphere.
# Agar cultures were prepared in Falcon 24 well tissue culture plate. Each well contained two agar layers of 0.3 ml.
# Agar cultures were prepared in wells of Falcon 24 well tissue culture plate. Each contained two agar layers of 0.3 ml. […] The medium contained Eagles MEM and 10% foetal bovine serum (FBS).
# The compounds were first solved in DMSO in 20 mM concentration and then diluted in medium. The top layer needed 60-90 minutes in the refrigerator for solidification before incubation in 37° C. with 5% CO2 atmosphere.
# In this experiment the inhibitor was added to the bottom layer in order to get an easier way for making the cell density gradient. One side of the Falcon 24 well plate was elevated 12 degrees in the refrigerator for 60-90 minutes to solidify the bottom layer in an oblique position When then solidifying the cell containing top soft agar layer in horizontal position, the cell gradient constantly became good across the well. […] Another 90 minutes were spent in the refrigerator to consolidate the soft agar layer with cells in a horizontal position. Both layers contained 0.8% agarose, Eagles MEM and 10% FBS.
# Tilting the plate 12 degrees when solidifying the bottom layer with the drug and casting the top layer with cells horizontally made a stable cell gradient.
# The indicated compounds were added to soft agar cultures of the polyoma virus transformed cell line S100T1 of BHK21/c13 cells (Table 1). Agar cultures were prepared in wells of a Falcon 24 well tissue culture plate. The wells contained two agar layers of 0.3 ml. […] The bottom medium was identical, but without cells.
# The compounds were first solved in DMSO in 20 mM concentration and then diluted in bottom medium. The agar layers needed 60-90 minutes in the refrigerator for consolidation before incubation at 37° C. in 5% CO2 atmosphere.
Compound,"Clonal growth, H high density area of cell gradient, High (high concentration)","Clonal growth, L low density area of cell gradient, High (high concentration)","Clonal growth, H high density area of cell gradient, Low (low concentration)","Clonal growth, L low density area of cell gradient, Low (low concentration)","Clonal growth, H high density area of cell gradient, Medium (medium concentration)","Clonal growth, L low density area of cell gradient, Medium (medium concentration)",Effect on cell cloning in soft agar,Resulting clonal growth of treated cultures [2],Resulting clonal growth of treated cultures [3],Resulting clonal growth of treated cultures [4],Resulting clonal growth of treated cultures [5],Resulting clonal growth of treated cultures [6],Resulting clonal growth of treated cultures [7],other results
"O=P1(N(CCCl)CCCl)NCCCO1 (centres unmarked) [Cyclophosphamide, reference compound]",++,++,++(+),++,++(+),++,When unactivated growth increased in,,,,,,,"Effect on growth in densely and sparsely seeded areas [1]: no inhibition of growth in any of these areas; also recorded: No inhibition of clonal cell growth was; Effect on growth in densely seeded areas [1]: stimulation of clonal growth probably was significant; Effect on growth in densely and sparsely seeded areas (Exp 19, 120000 S100T1 cells/well, listed as cyclophosphamide): obtained, but cyclophosphamide stimulated; Clonal growth after 48 hours incubation (Exp 19, high concentration, L: low cell density part of the gradient): ++; Clonal growth after 48 hours incubation (Exp 19, low concentration, L: low cell density part of the gradient): ++; Clonal growth after 48 hours incubation (Exp 19, medium concentration, L: low cell density part of the gradient): ++"
"c1ccc2c(c1)cc1ccc3cccc4ccc2c1c34 [Benzo(a)pyrene, reference compound]",++,+++,++,++,++,++,Increased clonal growth at low density,++,++,++,+++,++,++,"Effect on clonal growth, high dose (Exp 26): increased clonability"
"Cn1cnc([N+](=O)[O-])c1Sc1ncnc2nc[nH]c12 [Azathioprin, reference compound]",++,++,++,++,++,++,No effect,,,,,,,"Effect on clonal growth (Exp 25, 48 hours incubation): no clonal inhibition or stimulation; Clonal growth (Experiment 25, H: area with high cell density, High concentration, after 48 hours incubation): ++; Clonal growth [8]: ++; Clonal growth [9]: ++; Clonal growth [10]: ++; Clonal growth [11]: ++; Clonal growth [12]: ++"
"Cc1c2oc3c(C)ccc(C(=O)N[C@@H]4C(=O)N[C@H](C(C)C)C(=O)N5CCC[C@H]5C(=O)N(C)CC(=O)N(C)[C@@H](C(C)C)C(=O)O[C@@H]4C)c3nc-2c(C(=O)N[C@@H]2C(=O)N[C@H](C(C)C)C(=O)N3CCC[C@H]3C(=O)N(C)CC(=O)N(C)[C@@H](C(C)C)C(=O)O[C@@H]2C)c(N)c1=O [Actino-mycin D, Actinomycin D, reference compound] (I: T[dV]P[Sar][NMeV] / II: T[dV]P[Sar][NMeV]; ester I:1-I:C, II:1-II:C; linker I:N-II:N via Actinocin(9to1))",+,((+)),++,+,++,(+),"Good, but not complete inhibition",,,,,,,"Effect on clonal growth and toxicity (Exp 21): good, but probably no complete inhibition of clonal growth at low toxicity; also recorded: no absolute clonal inhibition of sparsely seeded cells; also recorded: There was signs of good, but not complete; Clonal growth [13]: ++; Clonal growth [14]: +; Clonal growth [15]: +; Clonal growth [16]: ++; Clonal growth [17]: (+)"
"4-hydroxy-4-aldehyd-1,2-diphenyl-pyrazolidinedione [#10]",,,,,,,,,,,,,,"Clonal growth, H: high density area of cell gradient, High [18]: ((+)); Clonal growth, L: low density area of cell gradient, High [18]: −; Clonal growth, H: high density area of cell gradient, Low [19]: ++; Clonal growth, L: low density area of cell gradient, Low [19]: ++; Clonal growth, H: high density area of cell gradient, Medium [20]: ++; Clonal growth, L: low density area of cell gradient, Medium [20]: −; Concentration inhibiting clonal growth of sparsely seeded cells without affecting densely seeded areas (Exp 25, medium concentration, 180000 S100T1 cells/well): about 50 μM; Clonal growth [8]: ++; Clonal growth [9]: ++; Clonal growth [10]: −; Clonal growth [11]: ++; Clonal growth [12]: −; Clonal growth (Summary Table 3 of analogue tests (experiments 22-25), H (high cell density), Low concentration): ++; Clonal growth (Summary Table 3 of analogue tests (experiments 22-25), H (high cell density), Medium concentration): ++; Clonal growth (Summary Table 3 of analogue tests (experiments 22-25), L (low cell density), High concentration): −; Clonal growth (Summary Table 3 of analogue tests (experiments 22-25), L (low cell density), Low concentration): ++; Clonal growth (Summary Table 3 of analogue tests (experiments 22-25), L (low cell density), Medium concentration): −; Clonal inhibition by 4-OH-OPB analogues, summary of Exp 22-25 (sparsely seeded areas while densely seeded areas of the same culture showed significant growth, listed as # 10): complete inhibition of growth in sparsely seeded areas"
"CC1=C(CC(=O)O)c2cc(F)ccc2/C1=C\c1ccc([S+](C)[O-])cc1 (centres unmarked) [Sulindac, reference compound]",++,+,++(+),+++,++,++,Possible clonal stimulation at low,++,++(+),++,+,+++,++,"Effect on clonal growth of sparsely seeded cells, low dose (Exp 26): clone-inducing effect; Effect on clonal growth, high dose (Exp 26): weak anti-cloning effect on sparsely seeded cells; also recorded: abrogated this effect. It is considered logic"
O=P1(N(CCCl)CCCl)NCCCO1 (centres unmarked) [Cycloph. amide],,,,,,,,,,,,,,"Clonal growth after 48 hours incubation (Exp 19, high concentration, H: high cell density part of the gradient): ++; Clonal growth after 48 hours incubation (Exp 19, low concentration (exact conc. only in figure), H: high cell density part of the gradient): ++(+); Clonal growth after 48 hours incubation (Exp 19, medium concentration, H: high cell density part of the gradient): ++(+)"
"O=c1[nH]cc(F)c(=O)[nH]1 [Fluorouracil, reference compound]",++,+,++,+,++,+,Rel. moderate inhibition of clonal growth,,,,,,,"Effect on clonal growth and toxicity (Exp 21): relatively moderate inhibition of clonal growth and low toxicity independent of dosage; Clonal growth [13]: ++; Clonal growth [14]: ++; Clonal growth (Exp 21, High concentration, L: area with low cell density): +; Clonal growth [15]: +; Clonal growth [16]: ++; Clonal growth [17]: +"
"CN(C)c1nc(N(C)C)nc(N(C)C)n1 [Altretamine, reference compound]",++,++,++,++,++,++,No effect,++,++,++,++,++,++,Effect on clonal growth (Exp 26): No effect on cell growth was observed; also recorded: carcinoma in mice. Altretamine had no effect
COc1cc2c(c(OC)c1OC)-c1ccc(OC)c(=O)cc1[C@@H](NC(C)=O)CC2 [Colchicin],,,,,,,,,,,,,,"Control of metastatic cells leaving tumour (ability of cells to leave a tumour, grow and infiltrate locally or grow in sparsely seeded areas, concluded from Exp 17): probably not; Control of settlement of metastatic cells (single cells or very few cells spread to distant sites, concluded from Exp 17): partly; Toxicity for body or dense cell populations (supposed main advantages or disadvantages if used in cancer treatment, concluded from Exp 17): none or small; Tolerating long duration of treatment (supposed, if used in cancer treatment): yes"
